# In patent US7553832B2, “Methods and compositions for specific inhibition of protein splicing by small molecules” (Boston Biomedical Research Institute, priority 2005, dated 2009):
# pIC50: −log10 of the molar value.
# Biological target: T1, M. tuberculosis DnaB intein (Mycobacterium tuberculosis, UniProt P9WMR3)
# T1 sequence (P9WMR3 400-815 limits assumed): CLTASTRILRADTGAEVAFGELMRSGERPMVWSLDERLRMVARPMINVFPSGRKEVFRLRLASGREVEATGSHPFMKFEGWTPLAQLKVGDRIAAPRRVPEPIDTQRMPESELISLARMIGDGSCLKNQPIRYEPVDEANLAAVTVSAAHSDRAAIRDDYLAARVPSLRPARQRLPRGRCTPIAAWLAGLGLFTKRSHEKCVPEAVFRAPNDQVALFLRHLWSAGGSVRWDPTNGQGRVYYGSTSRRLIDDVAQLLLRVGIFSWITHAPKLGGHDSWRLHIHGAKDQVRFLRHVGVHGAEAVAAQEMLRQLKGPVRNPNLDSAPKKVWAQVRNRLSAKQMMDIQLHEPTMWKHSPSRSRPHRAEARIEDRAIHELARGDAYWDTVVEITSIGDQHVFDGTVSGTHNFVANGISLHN
# Test: biochemical
# Type: biochemical
row,SMILES,pIC50
1,CC1(C)CC(=O)c2c(S(C)(=O)=O)sc(C(=O)OCc3ccccc3)c2C1 [Compound 30],> 5.30
2,O=C(c1nnsc1[S+]([O-])c1ccc(Cl)cc1)N1CCCCC1 (stereo not shown) [Compound 11],5.10
3,O=[N+]([O-])c1cc(C(F)(F)F)cc([N+](=O)[O-])c1Sc1nc2ccccc2[nH]1 [Compound 55],5.15
4,C=CCn1c(Sc2ncnc3c2sc(=S)n3CC=C)nnc1-c1ccccc1 [Compound 27],> 5.30
5,CCOC(=O)CSc1nc2c(c(-c3cccs3)c1C#N)CN(C)CC2 [Compound 56],5.00
6,COc1ccc(NC(=O)C(Cl)=C(Cl)[S+]([O-])Cc2ccc(C)cc2)cn1 (stereo not shown) [Compound 43],> 5.30
7,Cn1cc(C(=O)c2cccc(Cl)c2Cl)cc1C(=O)C(Cl)(Cl)Cl [Compound 40],> 5.30
8,COc1ccc(NC(=O)C(Cl)=C(Cl)[S+]([O-])Cc2ccccc2)cn1 (stereo not shown) [Compound 9],5.15
9,O=S(=O)(c1cccc(C(F)(F)F)c1)c1snnc1-c1ccccc1 [Compound 35],> 5.30
10,CS(=O)(=O)c1cc(C(F)(F)F)cc(S(C)(=O)=O)c1S(C)(=O)=O [Compound 3],4.77
11,Oc1cc(OCc2ccc(C(F)(F)F)cc2)ccc1-c1cc[nH]n1 [Compound 44],> 5.30
12,N#CC1(C#N)C(c2cccc(I)c2)C(C(N)=O)N2C=Cc3ccccc3C21 (stereo not shown) [Compound 17],4.82
13,CCOC(=O)c1nnc(-c2ccccc2)nc1Sc1ccccc1C(=O)OC [Compound 41],> 5.30
14,O=C(Nn1c(C2CCCCC2)nc2ccccc2c1=O)c1cc([N+](=O)[O-])cc([N+](=O)[O-])c1Cl [Compound 53],> 5.30
15,O=S(=O)(c1ccc(Cl)c(Cl)c1)c1snnc1-c1ccccc1 [Compound 7],5.22
16,O=S(=O)(c1ccc(Br)cc1)c1snnc1-c1ccccc1 [Compound 6],4.89
17,O=C(CCl)N1CCN2C(=O)c3ccccc3C12c1ccc(Cl)cc1 (stereo not shown) [Compound 13],5.10
18,Cc1cc(S(=O)(=O)c2ccc(C(F)(F)F)cc2[N+](=O)[O-])c(Cl)cc1Cl [Compound 66],> 5.30
19,Oc1cc2c(cc1C(c1ccc(Cl)c(Cl)c1)N1CCCC1)OCO2 (stereo not shown) [Compound 1],4.52

row,SMILES,pIC50
1,O=C(c1c[nH]c(C(=O)C(Cl)(Cl)Cl)c1)c1cccc(Cl)c1Cl [Compound 59],> 5.30
2,O=C(Nc1ccccc1)c1nnsc1S(=O)(=O)c1ccc(Cl)cc1 [Compound 10],5.15
3,N#CC(N)=C(C#N)NCc1ccccc1Sc1ccc(Cl)cc1 [Compound 29],> 5.30
4,CC1(C)CC(=O)C2(C(=O)C1)C(c1ccc(Cl)cc1Cl)C2(C#N)C#N (stereo not shown) [Compound 37],> 5.30
5,COC(=O)c1sc(S(C)(=O)=O)c(C#N)c1-c1cc(C(C)(C)C)oc1C [Compound 33],> 5.30
6,CCOC(=O)c1cc(C#N)c(Sc2nnc(SCC3CC3)s2)nc1C(F)(F)F [Compound 71],> 5.30
7,O=C(Sc1ccccc1)c1ccc2ncsc2c1 [Compound 68],5.05
8,N#CC1(C#N)C(c2ccccc2Cl)C1(C#N)C#N [Compound 21],4.82
9,CCOC(=O)c1cc(C#N)c(Sc2nnc(SC)s2)nc1C(F)(F)F [Compound 72],> 5.30
10,[O-][S+](c1ccc(C(F)(F)F)cc1)c1cnn2c(Cl)nnc2c1 (stereo not shown) [Compound 45],> 5.30
11,N#CCSc1ccc(C#N)cc1 [Compound 24],4.92
12,Oc1cc2c(cc1C(c1ccc(C(F)(F)F)cc1)N1CCOCC1)OCO2 (stereo not shown) [Compound 69],4.43
13,Oc1ccc(Br)cc1CNc1cccc(C(F)(F)F)c1 [Compound 70],5.30
14,COc1cccc(N(NC(=O)C(O)(c2cccc(C(F)(F)F)c2)c2cccc(C(F)(F)F)c2)C(=O)CCl)c1 [Compound 51],> 5.30
15,Cc1cc(Oc2c([N+](=O)[O-])cc(C(F)(F)F)cc2[N+](=O)[O-])ccc1Cl [Compound 64],> 5.30
16,CCCN(CCC)S(=O)(=O)c1ccc(C(=O)SCC(=O)OCC)cc1 [Compound 2],4.89
17,O=C(Oc1ccc(Cl)cc1)c1snnc1-c1ccccc1 [Compound 23],> 5.30
18,O=C(OCn1ncc(Cl)c(Cl)c1=O)c1cccc(C(F)(F)F)c1 [Compound 38],> 5.30
